Tests used:
unidentified adenovirus = test: Inhibitory activity of compound against Adenovirus type 2 (AD2) was evaluated in vitro; Inactive; type: functional
[1] = test system: Japanese encephalitis virus; test: Inhibitory activity of compound against japanese encephalitis virus (JBE) was evaluated in vitro; Inactive; type: functional
[2] = test system: Vesicular stomatitis virus; test: Inhibitory activity of compound against Vesicular stomatitis virus (VSV) was evaluated in vitro; Inactive; type: functional
Punta Toro virus = test: Inhibitory activity of compound against punto toro virus (PT) was evaluated in vitro; Inactive; type: functional
[3] = test system: Human immunodeficiency virus; test: Inhibitory activity of compound against human immunodeficiency virus (HIV) was evaluated in vitro; Inactive; type: functional, Human immunodeficiency virus 1
Yellow fever virus = test: Inhibitory activity of compound against Yellow fever virus (YF) was evaluated in vitro; Inactive; type: functional
[4] = test system: Venezuelan equine encephalitis virus; test: Inhibitory activity of compound against Venezuelan equine encephalomyelitis virus (VEE) was evaluated in vitro; Inactive; type: functional
Pichinde virus = test: Inhibitory activity of compound against pichinde virus (PIC) was evaluated in vitro; Inactive; type: functional
Rift Valley fever virus = test: (§1) Inhibitory activity of compound against […] was evaluated in vitro; Inactive; type: functional
[5] = test system: Sandfly fever Sicilian virus; test: as §1; type: functional

Measured: Dose

CC(O)C(CP(=O)(O)O)OCn1ccc(=O)[nH]c1=O (stereo not given)
320 µg/mL: all assays above

CCOP(=O)(C[C@H](O)[C@H](C)OCc1ccccc1)OCC
320 µg/mL: all assays above

CCOP(=O)(O)CC(OCn1cc(C)c(=O)[nH]c1=O)C(C)O (stereo not given)
320 µg/mL: all assays above

Cc1cn(COC(CP(=O)(O)O)C(C)O)c(=O)[nH]c1=O (stereo not given)
320 µg/mL: all assays above

CCOP(=O)(O)CC(OCn1ccc(=O)[nH]c1=O)C(C)O (stereo not given)
320 µg/mL: all assays above

CC(O)C(CP(=O)(O)O)OCn1ccc(N)nc1=O (stereo not given)
320 µg/mL: all assays above

CCOP(=O)(C[C@H](O)[C@H](COCc1ccccc1)OCc1ccccc1)OCC
320 µg/mL: all assays above

Cc1cn(COC(CP(=O)(O)O)C(O)CO)c(=O)[nH]c1=O (stereo not given)
320 µg/mL: all assays above

Cc1cn(COC2CP(=O)(Oc3ccccc3)OC2C)c(=O)[nH]c1=O (stereo not given)
320 µg/mL: all assays above

Source: ChEMBL document CHEMBL1129515, “Synthesis and biological evaluation of1',2'-seconucleo-5'- phosphonates” (1996)
